Data set [1] concerns healthy mice. The following applies: cited from earlier work.
Data set [2] has as its system male Wistar rats. The data set is described as follows: Object Location Task (OLT), learning and memory improvement in vivo. Further details: species or system rat. Particulars: for memory performance, discrimination index (d2), compared with chance level (d2=0): one-sample t-test; for memory performance, discrimination index (d2), compared to the vehicle condition: one-way ANOVA, LSD t-tests; for dose with the most prominent effect in the memory test: object location task, rats, dose does not decrease blood pressure. The text has this: Therefore, the well accepted Object Location Task (OLT) in rats was used. This task allows the assessment of acquisition, consolidation and retrieval of (spatial) information into memory, and is derived from the Object Recognition Task (ORT) (e.g. Ennaceur and Delacour, 1988; Prickaerts et al., 1997).
All experimental procedures were approved by the local ethical committee of Maastricht University for animal experiments and met governmental guidelines. […] The animals were housed individually in a standard IVC cage system on sawdust bedding in an air-conditioned room (about 20° C.). They were kept under a reversed 12/12 h light/dark cycle (lights on from 19.00 to 07.00) and had free access to food and water. Rats were housed and tested in the same room. A radio, which was playing softly, provided background noise in the room. All testing was done between 09.00 and 17.00.
The test compounds were freshly prepared on every experimental day and were dissolved in 0.5% Tylose solution (98% of the end volume) with 2% Tween80.
The order of the treatments was balanced to prevent the data from being distorted by potential object- and side-preferences of the animals.
The Object Location Task (OLT) was derived from the Object Recognition Test (ORT) (Ennaceur and Delacour, 1988). The OLT is a one-trial learning task which allows the assessment of spatial memory, and was performed as described elsewhere (Bruno et al., 2011, Vanmierlo et al., 2011). In the first (learning) trial a rat is put into an arena in which two identical objects are placed. After a certain delay, the rat is given a second trial. In this second trial the rat is again placed in the same arena but now one of the objects has been moved to a different position within the area. In other words, a new spatial arrangement is being used.
The apparatus consisted of a circular arena, 83 cm in diameter. The back-half of the 40 cm high arena wall was made of gray polyvinyl chloride, the front-half consisted of transparent polyvinyl chloride. The light intensity was equal in the different parts of the apparatus, as fluorescent red tubes provided a constant illumination of about 20 lux on the floor of the apparatus. In the first (learning) trial (T1), two objects were placed in a symmetrical position on a distance of about 10 cm from the wall of the left- and the right-side of the arena. In the second (test) trial (T2), one object is moved to a new location which is about 20 cm higher or lower than the original positon. Four different sets of objects were used. The different objects were: 1) a cone consisting of a gray polyvinyl chloride base (maximal diameter 18 cm) with a collar on top made of aluminum (total height 16 cm), 2) a standard 1 L brown glass bottle (diameter 10 cm, height 22 cm) filled with water, 3) a massive metal cube (10.0×5.0×7.5 cm) with two holes (diameter 1.9 cm), and 4) a solid aluminum cube with a tapering top (13.0×8.0×8.0 cm). Rats were unable to displace the objects.
A testing session consisted of two trials. The duration of each trial was 3 min. During the first trial (T1) the apparatus contained two identical objects. Rats were placed in the apparatus facing the wall at the middle of the front (transparent) segment. After the first exploration period the rat was put back in its home cage. Subsequently, after a 24 h delay interval, the rat was put in the apparatus for the second trial (T2). The total time an animal spent exploring each object during T1 and T2 was recorded manually with a personal computer.
Exploration was defined as follows: directing the nose to the object at a distance of no more than 2 cm and/or touching the object with the nose. Sitting on the object was not considered as exploratory behavior. A minimal amount of object interaction is required in order to achieve reliable object discrimination, therefore rats that explore less than 7 s in T1 and/or 9 s in T2 should be excluded from the analyses (Akkerman et al., 2012).

Data set [3] deals with normotensive Wistar rats. The data set is described as follows: Measurement of arterial blood pressure in vivo by radiotelemetry in conscious rats. Further details: species or system rat. The following applies: over 24 hours; for effect on mean arterial blood pressure (MAP) over the dose range: all tested doses compared to vehicle. The protocol:
Adult normotensive Wistar rats (Wistar HSD CPB:WU) with a body weight of 250 to 350 g were used for these experimental studies. All animals were housed in individual cages at 22-24° C. ambient temperature and maintained on a 12-hour light/dark cycle with free access to standard laboratory rat chow and water ad libitum. All animal experiments were done in accordance to the current national legislation (German protection of animals act and the EU directives on the protection of animals used for scientific purposes). All performed studies were approved by the regional regulatory authority (LANUV NRW in Germany) and by the institutional animal care and use committee of Bayer AG.
Blood pressure is monitored in freely moving conscious rats by radiotelemetry by a telemetric system (DSI Data Science International, MN, USA). A transmitters (TAI1PA-C40) is implanted in the abdomen of the rat during deep anaesthesia. After recovery of the rats, telemetric signals are registered by a receiver plate (RA1010) and compiled by a computer-based acquisition software (Dataquest A.R.T 4.1 for Windows).
After shaving the abdominal wall of the rat, a midline abdominal incision was made, and the fluid-filled sensor catheter was inserted upstream into the exposed descending aorta between the iliac bifurcation and the renal arteries. According to the DSI guidelines the tip of the telemetric catheter was located just caudal to the renal arteries and secured by tissue adhesive. The transmitter body was affixed to the inner peritoneal wall before closure of abdomen. A two-layer closure of the abdominal incision was used, with individual suturing of the peritoneum and the muscle wall followed by closure of the outer skin. Surgery was performed under aseptic conditions. For postsurgical protection against infections and pain a single dosage of an antibiotic (Oxytetracyclin® 10%, 60 mg/kg s.c., 0.06 ml/100 g body weight, Beta-Pharma GmbH & Co, Germany) and analgesic were injected (Rimadyl®, 4 mg/kg s.c., Pfizer, Germany).
After activation of the implanted transmitters, A.R.T., an on-line data acquisition system, samples data and converts telemetric pressure signals to mm Hg. A barometric pressure reference allows for relation of absolute pressure (relative to vacuum) to ambient atmospheric pressure. Data acquisition software was predefined to sample hemodynamic data for 10-s intervals every 5 minutes. Data collection to file was started 2 hours (T=−2 hours) before drug administration (T=0 hours) and finished after completion of 24 hours (T=24 hours).
Data are expressed as % of baseline values. The baseline value for each animal was calculated and represents the mean blood pressure of the 2 hour period (T=−2 hours to T=0 hours) before the administration of drug or vehicle. For further analysis data were grouped to provide mean for every 0.5 hours. The means of all values obtained for each individual during the period indicated were averaged for each day. Groups were compared by one-way ANOVA with Dunnet's test.
All animals were treated with single oral doses of vehicle or the compound in different dosages (e.g. 0.3, 1.0, 3.0, or 10.0 mg/kg). Application volume was 2 ml/kg body weight. The experiment started at 7:00 a.m. (T=−2 hours), vehicle or drug administration took place at 9.00 a.m. (=0 hours) and registration period was 24 hours. For analysis, data were grouped to provide half-hourly averages.

[4] abbreviates: 0.1 mg/kg p.o. 30 min before T1, 24 h interval.
The mark [5] stands for this setting: 0.3 mg/kg p.o. 30 min before T1, 24 h interval.
Setting [6] is: 1.0 mg/kg p.o. 30 min before T1, 24 h interval.

Where two headings read alike, the source gives them in different places.

In the case of `COC(=O)N(C)c1c(N)nc(-c2nn(Cc3ccccc3F)c3ncccc23)nc1N` [Riociguat], the spatial memory entry was “no significant effect” in data set [1] (higher doses 0.1-0.3 mg/kg), “no significant effect” in data set [1] (lower dose 0.01 mg/kg) and “able to enhance spatial memory” in data set [1] (single dose of 0.03 mg/kg).

On to `C[C@H]([C@H](C(=O)Nc1cc(C(CC(=O)O)C2CC2)ccc1Cl)c1ccc(Cl)cc1)C(F)(F)F` (stereo partly drawn) [compound of formula (1), 3-(4-chloro-3-{[(2S,3R)-2-(4-chlorophenyl)-4,4,4-trifluoro-3-methylbutanoyl]amino}phenyl)-3-cyclopropylpropanoic acid], for which the “memory performance, discrimination index (d2), compared with chance level (d2=0)” value in data set [2] (0.03 mg/kg p.o. 30 min before T1, 24 h interval) is on record as “improved memory performance”; in data set [2] (setting [4]) it was “improved memory performance”; in data set [2] (setting [5]), “improved memory performance”; in data set [2] (setting [6]), “improved memory performance”. Also, the “memory performance, discrimination index (d2), compared to the vehicle condition” value in data set [2] (setting [4]), in data set [2] (setting [5]) and in data set [2] (setting [6]) was “significant higher memory performance” in each case. Moreover, the “dose with the most prominent effect in the memory test” value in data set [2] is given as 0.3 mg/kg. Further, the “mean arterial blood pressure (MAP) compared to vehicle” value is on record as “no significant decrease” in data set [3] (1.0 mg/kg single oral dose), “no significant decrease” in data set [3] (3.0 mg/kg single oral dose) and “significantly lowered” in data set [3] (10.0 mg/kg single oral dose). Moreover, the “effect on mean arterial blood pressure (MAP) over the dose range” value in data set [3] is on record as “dose-dependent effect”.

As to `O=C(O)CCCCN(CCc1cc(F)ccc1OCc1ccc(-c2ccc(C(F)(F)F)cc2)cc1)Cc1ccc(C(=O)O)cc1` [compound of formula (2), 4-({(4-carboxybutyl)[2-(5-fluoro-2-{[4′-(trifluoromethyl)[1,1′-biphenyl]-4-yl]methoxy}phenyl)ethyl]amino}methyl)benzoic acid], the “memory performance, discrimination index (d2), compared with chance level (d2=0)” value in data set [2] (setting [4]), in data set [2] (setting [5]) and in data set [2] (setting [6]) was “improved memory performance” in each case. Also, the “memory performance, discrimination index (d2), compared to the vehicle condition” value in data set [2] (setting [5]) and in data set [2] (setting [6]) was “significant higher memory performance” each time.

As for `COC(=O)Nc1c(N)nc(-c2nn(Cc3ccccc3F)c3ncc(F)cc23)nc1N` [compound of formula (5), methyl{4,6-diamino-2-[5-fluoro-1-(2-fluorobenzyl)-1H-pyrazolo[3,4-b]pyridine-3-yl]pyrimidin-5-yl}carbamate], the “memory performance, discrimination index (d2), compared with chance level (d2=0)” value in data set [2] (setting [4]), in data set [2] (setting [5]) and in data set [2] (setting [6]) was “improved memory performance” in each case. Further, the “memory performance, discrimination index (d2), compared to the vehicle condition” value in data set [2] (setting [5]) and in data set [2] (setting [6]) was “significant higher memory performance” in each case. For the same compound, in data set [2], the “dose with the most prominent effect in the memory test” value was 0.3 mg/kg. Moreover, the entries for the “mean arterial blood pressure (MAP) compared to vehicle” value in data set [3] (0.3 mg/kg single oral dose), in data set [3] (1.0 mg/kg single oral dose) and in data set [3] (3.0 mg/kg single oral dose) were “no significant decrease”, “significantly lowered” and “significantly lowered”, respectively. In data set [3], the “effect on mean arterial blood pressure (MAP) over the dose range” value is listed as “dose-dependent effect”.

(Values after patent US20210052528A1, “THE USE OF SGC ACTIVATORS AND SGC STIMULATORS FOR THE TREATMENT OF COGNITIVE IMPAIRMENT” (Bayer Aktiengesellschaft, priority 2018, published 2021).)
